For twelve compounds, T/C results are on record in PubChem BioAssay AID256 (DTP/NCI, 2004).

Values joined by “and” are separate entries in the source; they are usually repeats but may differ in a detail not shown here. Equal entries are not always repeated. Toxic doses and inconclusive results are not listed.

This assay concerns CD2F1 mice, L1210 leukemia ip, survival T/C. In words: NCI In Vivo Anticancer Drug Screen. Data for tumor model L1210 Leukemia (intraperitoneal) in CD2F1 (CDF1) mice. As to conditions: higher = longer survival. Summed up: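 Vehicle-treated tumor-bearing mice served as controls (C) for compound-treated mice (T). Reported figure is T divided by C.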
The mark [1] stands for this setting: endpoint: mean survival time, dose: 100.0 mg/kg/injection, schedule: Q04DX003 (ip), vehicle: saline with Tween-80.
Setting [2] is: endpoint: mean survival time, dose: 200.0 mg/kg/injection, schedule: Q04DX003 (ip), vehicle: saline with Tween-80.
The mark [3] stands for this setting: endpoint: mean survival time, dose: 400.0 mg/kg/injection, schedule: Q04DX003 (ip), vehicle: saline with Tween-80.
Setting [4] is: endpoint: mean survival time, dose: 100.0 mg/kg/injection, schedule: Q01DX001 (ip), vehicle: saline with Tween-80.

Take `O=c1cnn(C2OC(CO)C(O)C2O)c(=O)[nH]1` (configuration not stated): the T/C was 119 % of control (endpoint: mean survival time, dose: 12.5 mg/kg/injection, schedule: Q03HX024 (ip), vehicle: saline); 115 % of control and 120 % of control (endpoint: mean survival time, dose: 50.0 mg/kg/injection, schedule: Q01DX005 (ip), vehicle: water); 91 % of control (endpoint: mean survival time, dose: 50.0 mg/kg/injection, schedule: Q03HX024 (ip), vehicle: saline); 105 % of control (endpoint: mean survival time, dose: 100.0 mg/kg/injection, schedule: Q01DX001 (ip), vehicle: saline); 117 % of control and 121 % of control and 106 % of control (endpoint: mean survival time, dose: 100.0 mg/kg/injection, schedule: Q01DX005 (ip), vehicle: water); 119 % of control (endpoint: mean survival time, dose: 100.0 mg/kg/injection, schedule: Q01DX009 (ip), vehicle: distilled water + Tween-80). For the same compound, the T/C was 122 % of control (endpoint: mean survival time, dose: 100.0 mg/kg/injection, schedule: Q01DX009 (ip), vehicle: saline); 122 % of control (endpoint: mean survival time, dose: 143.0 mg/kg/injection, schedule: Q03HX016 (ip), vehicle: other); 101 % of control (endpoint: mean survival time, dose: 200.0 mg/kg/injection, schedule: Q01DX001 (ip), vehicle: saline); 121 % of control and 123 % of control and 108 % of control (endpoint: mean survival time, dose: 200.0 mg/kg/injection, schedule: Q01DX005 (ip), vehicle: water); 86 % of control (endpoint: mean survival time, dose: 200.0 mg/kg/injection, schedule: Q01DX009 (ip), vehicle: saline); 151 % of control (endpoint: mean survival time, dose: 300.0 mg/kg/injection, schedule: Q03HX024 (ip), vehicle: other). For the same compound, the T/C by setting is: (endpoint: mean survival time, dose: 400.0 mg/kg/injection, schedule: Q01DX001 (ip), vehicle: saline) 108 % of control; (endpoint: mean survival time, dose: 400.0 mg/kg/injection, schedule: Q01DX005 (ip), vehicle: water) 116 % of control; (endpoint: mean survival time, dose: 400.0 mg/kg/injection, schedule: Q01DX009 (ip), vehicle: saline) 94 % of control; (endpoint: mean survival time, dose: 500.0 mg/kg/injection, schedule: Q03HX016 (ip), vehicle: other) 152 % of control; (endpoint: mean survival time, dose: 500.0 mg/kg/injection, schedule: Q03HX024 (ip), vehicle: other) 181 % of control; (endpoint: mean survival time, dose: 800.0 mg/kg/injection, schedule: Q01DX001 (ip), vehicle: saline) 110 % of control. Also, the T/C runs as follows: (endpoint: mean survival time, dose: 800.0 mg/kg/injection, schedule: Q01DX005 (ip), vehicle: water) 110 % of control; (endpoint: mean survival time, dose: 800.0 mg/kg/injection, schedule: Q01DX009 (ip), vehicle: distilled water + Tween-80) 154 % of control; (endpoint: mean survival time, dose: 1000.0 mg/kg/injection, schedule: Q03HX016 (ip), vehicle: other) 152 % of control; (endpoint: mean survival time, dose: 1000.0 mg/kg/injection, schedule: Q03HX024 (ip), vehicle: other) 167 % of control; (endpoint: mean survival time, dose: 1600.0 mg/kg/injection, schedule: Q01DX009 (ip), vehicle: distilled water + Tween-80) 160 % of control; (endpoint: mean survival time, dose: 1600.0 mg/kg/injection, schedule: Q01DX009 (ip), vehicle: saline) 121 % of control.
For the compound `OCCOc1ccc(Cl)cc1Cl`, the T/C is, setting by setting: (endpoint: mean survival time, dose: 75.0 mg/kg/injection, schedule: Q04DX003 (ip), vehicle: saline with Tween-80) 98 % of control; (endpoint: mean survival time, dose: 150.0 mg/kg/injection, schedule: Q04DX003 (ip), vehicle: saline with Tween-80) 97 % of control; (endpoint: mean survival time, dose: 300.0 mg/kg/injection, schedule: Q04DX003 (ip), vehicle: saline with Tween-80) 98 % of control.
On to `COC(=O)C12OCC34C(CC5C(C)=C(O)C(=O)CC5(C)C3C(O)C1O)OC(=O)C(OC(=O)C=C(C)C)C24` (configuration not stated), for which the T/C is, setting by setting: (endpoint: mean survival time, dose: 125.0 micrograms/kg/injection, schedule: Q01DX009 (ip), vehicle: saline + alcohol) 103 % of control; (endpoint: mean survival time, dose: 250.0 micrograms/kg/injection, schedule: Q01DX009 (ip), vehicle: saline + alcohol) 100 % of control; (endpoint: mean survival time, dose: 500.0 micrograms/kg/injection, schedule: Q01DX009 (ip), vehicle: saline + alcohol) 98 % of control; (endpoint: mean survival time, dose: 1000.0 micrograms/kg/injection, schedule: Q01DX009 (ip), vehicle: saline + alcohol) 104 % of control; (endpoint: mean survival time, dose: 2000.0 micrograms/kg/injection, schedule: Q01DX009 (ip), vehicle: saline + alcohol) 101 % of control; (endpoint: mean survival time, dose: 4000.0 micrograms/kg/injection, schedule: Q01DX009 (ip), vehicle: saline + alcohol) 115 % of control.
As to `NC(=O)NNc1ccc([N+](=O)[O-])cc1[N+](=O)[O-]`, the T/C is, setting by setting: (endpoint: mean survival time, dose: 25.0 mg/kg/injection, schedule: Q04DX003 (ip), vehicle: saline with Tween-80) 93 % of control; (endpoint: mean survival time, dose: 50.0 mg/kg/injection, schedule: Q04DX003 (ip), vehicle: saline with Tween-80) 89 % of control; under setting [1], 97 % of control.
On to `CC(=O)CC1CC2(CCC1=O)OCCO2` (configuration not stated), for which the T/C was 102 % of control (endpoint: mean survival time, dose: 100.0 mg/kg/injection, schedule: Q01DX009 (ip), vehicle: saline with Tween-80); 98 % of control under setting [1]; 96 % of control (endpoint: mean survival time, dose: 200.0 mg/kg/injection, schedule: Q01DX009 (ip), vehicle: saline with Tween-80); 93 % of control under setting [2]; 100 % of control (endpoint: mean survival time, dose: 400.0 mg/kg/injection, schedule: Q01DX009 (ip), vehicle: saline with Tween-80); 102 % of control under setting [3].
In the case of `CC(CCC1OC2CC3C4CCC5CC(OC(=O)c6ccccc6)CCC5(C)C4CCC3(C)C2C1C)COC(=O)c1ccccc1` (configuration not stated), the T/C is 90 % of control (endpoint: mean survival time, dose: 100.0 mg/kg/injection, schedule: Q04DX002 (ip), vehicle: saline with Tween-80); 94 % of control (endpoint: mean survival time, dose: 200.0 mg/kg/injection, schedule: Q04DX002 (ip), vehicle: saline with Tween-80); 86 % of control (endpoint: mean survival time, dose: 400.0 mg/kg/injection, schedule: Q04DX002 (ip), vehicle: saline with Tween-80).
`CCN(CC)c1cc(C(=O)O)cc(N(CC)CC)n1`: the T/C runs as follows: (endpoint: median survival time, dose: 6.25 mg/kg/injection, schedule: Q01DX009 (ip), vehicle: other) 104 % of control; (endpoint: median survival time, dose: 12.5 mg/kg/injection, schedule: Q01DX009 (ip), vehicle: other) 107 % of control; (endpoint: median survival time, dose: 50.0 mg/kg/injection, schedule: Q01DX005 (ip), vehicle: acid diluted with saline) 103 % of control; (endpoint: median survival time, dose: 50.0 mg/kg/injection, schedule: Q01DX009 (ip), vehicle: other) 108 % of control; (endpoint: median survival time, dose: 100.0 mg/kg/injection, schedule: Q01DX005 (ip), vehicle: acid diluted with saline) 94 % of control; (endpoint: median survival time, dose: 100.0 mg/kg/injection, schedule: Q01DX009 (ip), vehicle: other) 121 % of control.
Consider `N#Cc1c(F)c(F)c(Oc2c(F)c(F)c(F)c(F)c2F)c(F)c1Oc1c(F)c(F)c(F)c(F)c1F`, for which the T/C reads like this: under setting [1], 96 % of control; under setting [2], 93 % of control; under setting [3], 88 % of control.
As for `CCCC(C(CC)CN(C)C)N(C)C` (configuration not stated), the T/C is 113 % of control (endpoint: mean survival time, dose: 3.12 mg/kg/injection, schedule: Q04DX002 (ip), vehicle: saline with Tween-80); 106 % of control (endpoint: mean survival time, dose: 6.25 mg/kg/injection, schedule: Q04DX002 (ip), vehicle: saline with Tween-80); 107 % of control (endpoint: mean survival time, dose: 12.5 mg/kg/injection, schedule: Q04DX002 (ip), vehicle: saline with Tween-80); 120 % of control (endpoint: mean survival time, dose: 25.0 mg/kg/injection, schedule: Q01DX001 (ip), vehicle: saline with Tween-80); 103 % of control (endpoint: mean survival time, dose: 25.0 mg/kg/injection, schedule: Q04DX002 (ip), vehicle: saline with Tween-80); 100 % of control (endpoint: mean survival time, dose: 50.0 mg/kg/injection, schedule: Q01DX001 (ip), vehicle: saline with Tween-80). In addition, under setting [4], the T/C was 100 % of control.
Regarding `[Cl][Sn]([c]1ccccc1)[c]1ccccc1`, the T/C runs as follows: (endpoint: mean survival time, dose: 6.25 mg/kg/injection, schedule: Q01DX009 (ip), vehicle: saline) 97 % of control; (endpoint: mean survival time, dose: 12.5 mg/kg/injection, schedule: Q01DX009 (ip), vehicle: saline with Tween-80) 96 % of control; (endpoint: mean survival time, dose: 25.0 mg/kg/injection, schedule: Q01DX009 (ip), vehicle: saline with Tween-80) 106 % of control; (endpoint: mean survival time, dose: 25.0 mg/kg/injection, schedule: Q01DX009 (ip), vehicle: saline) 106 % of control; (endpoint: mean survival time, dose: 50.0 mg/kg/injection, schedule: Q01DX009 (ip), vehicle: saline) 94 % of control.
As for `COC1=CCC(=Nc2ccccc2)C=C1`, the T/C under setting [4] was 96 % of control; the T/C (endpoint: mean survival time, dose: 200.0 mg/kg/injection, schedule: Q01DX001 (ip), vehicle: saline with Tween-80) is 102 % of control; the T/C (endpoint: mean survival time, dose: 400.0 mg/kg/injection, schedule: Q01DX001 (ip), vehicle: saline with Tween-80) was 95 % of control.
For `CC(=N)c1ccc(C)cc1`, the T/C (endpoint: mean survival time, dose: 6.25 mg/kg/injection, schedule: Q01DX001 (ip), vehicle: saline sonified) was 96 % of control; the T/C (endpoint: mean survival time, dose: 12.5 mg/kg/injection, schedule: Q01DX001 (ip), vehicle: saline sonified) was 96 % of control; the T/C (endpoint: mean survival time, dose: 25.0 mg/kg/injection, schedule: Q01DX001 (ip), vehicle: saline sonified) was 96 % of control.
